The target of assay [1] is T1, COX-2 (Homo sapiens, UniProt P35354).
T1 sequence (P35354 18-604): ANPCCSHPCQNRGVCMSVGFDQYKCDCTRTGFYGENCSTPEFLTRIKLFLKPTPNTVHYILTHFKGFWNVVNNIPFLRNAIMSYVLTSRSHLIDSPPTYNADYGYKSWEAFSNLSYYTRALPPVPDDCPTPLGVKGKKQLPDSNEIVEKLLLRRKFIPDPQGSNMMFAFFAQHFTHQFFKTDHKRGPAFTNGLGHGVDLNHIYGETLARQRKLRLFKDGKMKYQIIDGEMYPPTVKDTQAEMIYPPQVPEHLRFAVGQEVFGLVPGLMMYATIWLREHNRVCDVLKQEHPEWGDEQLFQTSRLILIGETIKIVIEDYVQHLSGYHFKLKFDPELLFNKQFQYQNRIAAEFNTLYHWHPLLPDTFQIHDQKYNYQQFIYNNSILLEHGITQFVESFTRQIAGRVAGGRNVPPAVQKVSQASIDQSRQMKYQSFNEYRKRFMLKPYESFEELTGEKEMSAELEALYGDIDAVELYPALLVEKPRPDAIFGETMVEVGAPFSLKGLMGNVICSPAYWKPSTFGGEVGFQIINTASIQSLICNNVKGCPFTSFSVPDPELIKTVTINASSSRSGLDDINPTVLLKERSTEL
Description: Human whole blood assay, COX-2 (LPS-induced PGE2 production). The class given is cell-based. On the set-up: endogenous in cells; host or cells: fresh heparinized human whole blood from volunteers, incubated with LPS. As to conditions: LPS-induced PGE2, 24 hours at 37° C., read-out: COX-2 (IC50 μM) HWB. On the procedure: Human whole blood provides a protein and cell-rich milieu appropriate for the study of biochemical efficacy of anti-inflammatory compounds such as selective COX-2 inhibitors. […] This is consistent with the observation that COX-2 inhibitors have no effect on PGE2 production in normal blood. These inhibitors are active only after incubation of human whole blood with LPS, which induces COX-2. This assay can be used to evaluate the inhibitory effect of selective COX-2 inhibitors on PGE2 production. As well, platelets in whole blood contain a large amount of the COX-1 enzyme. Immediately following blood clotting, platelets are activated through a thrombin-mediated mechanism. This reaction results in the production of thromboxane B2 (TxB2) via activation of COX-1. Thus, the effect of test compounds on TxB2 levels following blood clotting can be examined and used as an index for COX-1 activity. Therefore, the degree of selectivity by the test compound can be determined by measuring the levels of PGE2 after LPS induction (COX-2) and TxB2 following blood clotting (COX-1) in the same assay.
A. COX-2 (LPS-induced PGE2 production)
Fresh blood is collected in heparinized tubes by venipuncture from both male and female volunteers. The subjects have no apparent inflammatory conditions and have not taken any NSAIDs for at least 7 days prior to blood collection. Plasma is immediately obtained from a 2 mL blood aliquot to use as blank (basal levels of PGE2). The remaining blood is incubated with LPS (100 μg/ml final concentration, Sigma Chem, #L-2630 from E. coli; diluted in 0.1% BSA (Phosphate buffered saline) for 5 minutes at room temperature. Five hundred μL aliquots of blood are incubated with either 2 μL of vehicle (DMSO) or 2 μL of a test compound at final concentrations varying from 10 nM to 30 μM for 24 hours at 37° C. At the end of the incubation, the blood is centrifuged at 12,000×g for 5 minutes to obtain plasma. A 100 μL aliquot of plasma is mixed with 400 μL of methanol for protein precipitation. The supernatant is obtained and is assayed for PGE2 using a radioimmunoassay kit (Amersham, RPA#530) after conversion of PGE2 to its methyl oximate derivative according to the manufacturer's procedure.

Assay [2] deals with T1, COX-2. Description: Whole cell assay for COX-2 using CHO[hCOX-2] transfected cell line. The format is cell-based. On the set-up: expressed in transfected cells; host or cells: CHO cells stably transfected with pCDNAIII (CHO[hCOX-2]). The settings on record: CHO[hCOX-2] cells, PGE2 synthesis, 10 μM AA. The source says: Whole cell assays for COX-2 and COX-1 using CHO transfected cell lines
Chinese hamster ovary (CHO) cell lines which have been stably transfected with an eukaryotic expression vector pCDNAIII containing either the human COX-1 or COX-2 cDNA's are used for the assay. These cell lines are referred to as CHO[hCOX-1] and CHO[hCOX-2], respectively. For cyclooxygenase assays, CHO[hCOX-1] cells from suspension cultures and CHO[hCOX-2] cells prepared by trypsinization of adherent cultures are harvested by centrifugation (300×g, 10 min) and washed once in HBSS containing 15 mM HEPES, pH 7.4, and resuspended in HBSS, 15 mM HEPES, pH 7.4, at a cell concentration of 1.5×10^6 cells/ml. Drugs to be tested are dissolved in DMSO to 66.7-fold the highest test drug concentration. Compounds are typically tested at 8 concentrations in duplicate using serial 3-fold serial dilutions in DMSO of the highest drug concentration. Cells (0.3×10^6 cells in 200 μl) are preincubated with 3 μl of the test drug or DMSO vehicle for 15 min at 37° C. Working solutions of peroxide-free AA (5.5 μM and 110 μM AA for the CHO[hCOX-1] and CHO[COX-2] assays, respectively) are prepared by a 10-fold dilution of a concentrated AA solution in ethanol into HBSS containing 15 mM HEPES, pH 7.4. Cells are then challenged in the presence or absence of drug with the AA/HBSS solution to yield a final concentration of 0.5 μM AA in the CHO[hCOX-1] assay and a final concentration of 10 μM AA in the CHO[hCOX-2] assay. The reaction is terminated by the addition of 10 μl 1N HCl followed by neutralization with 20 μl of 0.5N NaOH. The samples are centrifuged at 300×g at 4° C. for 10 min, and an aliquot of the clarified supernatant is appropriately diluted for the determination of PGE2 levels using an enzyme-linked immunoassay for PGE2 (Correlate PGE2 enzyme immunoassay kit, Assay Designs, Inc.). Cyclooxygenase activity in the absence of test compounds is determined as the difference in PGE2 levels of cells challenged with arachidonic acid versus the PGE2 levels in cells mock-challenged with ethanol vehicle. Inhibition of PGE2 synthesis by test compounds is calculated as a percentage of the activity in the presence of drug versus the activity in the positive control samples.
Compounds of the present invention are inhibitors of cyclooxygenase-2 and are thereby useful in the treatment of cyclooxygenase-2 mediated diseases as enumerated above. The activities of the compounds against cyclooxygenase may be seen in the representative results shown below. In the assay, inhibition is determined by measuring the amount of prostaglandin E2 (PGE2) synthesized in the presence of arachidonic acid, cyclooxygenase-1 or cyclooxygenase-2 and a putative inhibitor. The IC50 values represent the concentration of putative inhibitor required to return PGE2 synthesis to 50% of that obtained as compared to the uninhibited control.

As usually defined, the IC50 is the point on the concentration scale where inhibition reaches its midpoint.

Take `CS(=O)(=O)c1ccc(-c2cc(CC(F)(F)F)oc(=O)c2-c2ccccc2)cc1` [Example 13, 4-(4-Methylsulfonyl)phenyl-3-phenyl-6-(2,2,2-trifluoroethyl)-pyran-2-one]: the IC50 on COX-2 [1] is 10.5 µM; on COX-2 [2] it was 0.37 µM.

These data come from patent publication US6465509B2, “Pyrones as inhibitors of cyclooxygenase-2” (Merck Frosst Canada & Co., priority 2000, dated 2002).
